Read-outs that look alike come from different tables or passages of the source.
Experiments:
Type in all cases: biochemical
[1] = biological target: T1, chymotrypsin (Bos taurus, UniProt P00766); assay: Chymotrypsin-inhibitory activity; details: concentration 0.1 μM; bovine pancreas, pH 8.0
T1 construct: purchased Sigma; host or cells: bovine pancreas
Description: (§1) Inhibitory activity against various proteases
(§2) The compound of the present invention having predetermined concentrations was tested for the specificity of the inhibitory activity against various proteases according to a known test method.
(§3) The methods for the determination of the inhibitory activity against various proteases other than prolyl endopeptidase and the method for calculating the inhibition are as follows.
Determination of chymotrypsin-inhibitory activity
In completely the same manner as above, respective fluorescence (c1, c2 and c3) was determined using a 50 mM Tris-HCl buffer (pH 8.0) as a buffer for determination, a 0.2 μM solution of chymotrypsin (derived from bovine pancreas, Sigma) in the same buffer as an enzyme solution, and a 200 μM solution of 7-(N-succinyl-leucyl-leucyl-varyl-tyrosyl)-4-methylcoumarinamide (Peptide Institute, Inc.) in the same buffer as a substrate solution.
(§4) Using the fluorescence x1, x2 and x3 wherein x is b, c, d, e or f, measured in the above-mentioned manner, the inhibition against various proteases was calculated by the following formula: [formula]

[2] = test system: leucine aminopeptidase; assay: Leucine aminopeptidase-inhibitory activity; details: concentration 0.1 μM; swine kidney, pH 8.0
Description: as §1, §2, §3
Determination of leucine aminopeptidase-inhibitory activity
In completely the same manner as above, respective fluorescence (d1, d2 and d3) was determined using a 50 mM Tris-HCl buffer (pH 8.0) as a buffer for determination, a 0.2 μM solution of leucine aminopeptidase (derived from swine kidney, Sigma) in the same buffer as an enzyme solution and a 200 μM solution of 7-leucyl-4-methyl-coumarinamide (Peptide Institute, Inc.) in the same buffer as a substrate solution.
as §4

[3] = biological target: T2, prolyl endopeptidase (Rattus norvegicus, UniProt O70196); assay: Prolyl endopeptidase-inhibitory activity; details: for inhibition at 0.1 µM: read-out: inhibition of prolyl endopeptidase
T2 construct: prolyl endopeptidase extracted from rat brain; from tissue; host or cells: rat brain
T2 sequence (O70196 1-710): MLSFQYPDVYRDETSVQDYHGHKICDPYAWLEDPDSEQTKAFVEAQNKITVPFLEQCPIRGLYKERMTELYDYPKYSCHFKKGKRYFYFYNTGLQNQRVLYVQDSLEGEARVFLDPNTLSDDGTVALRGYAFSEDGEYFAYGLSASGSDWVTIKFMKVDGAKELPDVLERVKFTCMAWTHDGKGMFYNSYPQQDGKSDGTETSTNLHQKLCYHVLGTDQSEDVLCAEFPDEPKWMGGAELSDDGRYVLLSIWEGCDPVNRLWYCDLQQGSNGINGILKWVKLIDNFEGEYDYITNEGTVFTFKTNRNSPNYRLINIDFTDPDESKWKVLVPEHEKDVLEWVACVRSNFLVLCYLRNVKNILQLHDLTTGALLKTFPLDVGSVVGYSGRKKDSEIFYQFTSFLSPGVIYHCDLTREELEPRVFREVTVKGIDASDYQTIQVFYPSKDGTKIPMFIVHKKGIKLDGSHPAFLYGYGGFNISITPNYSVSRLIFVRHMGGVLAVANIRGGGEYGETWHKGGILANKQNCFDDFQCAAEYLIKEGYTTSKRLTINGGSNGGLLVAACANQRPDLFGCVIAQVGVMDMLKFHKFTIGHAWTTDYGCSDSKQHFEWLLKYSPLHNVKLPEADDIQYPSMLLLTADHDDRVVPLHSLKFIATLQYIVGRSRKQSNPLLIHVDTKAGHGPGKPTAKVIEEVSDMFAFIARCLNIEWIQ
Description: Prolyl endopeptidase-inhibitory activity
A mixture of a 0.1M potassium-sodium phosphate buffer (pH 7.0, 2675 μl ), a solution of the compound of the present invention in a 0.1M potassium-sodium phosphate buffer (pH 7.0, 100 μl ) and a solution of prolyl endopeptidase extracted from rat brain in a 25 mM sodium phosphate buffer (100 μl ) [123 unit/1, pH 6.8, containing 1 mM dithiothreitol and 0.5 mM EDTA, prepared by the method described in J. Neurochem., 35, 527 (1980)] was preincubated at 30° C. for 30 minutes. Thereto was added a 0.2 mM solution of 7-(N-succinyl-glycyl-prolyl)-4methylcoumarinamide (Peptide Institute, INC.) in a 0.1M potassium-sodium phosphate buffer (pH 7.0, 125 μl), and the mixture was incubated at 30° C. for 1 hour. The reaction mixture was immersed in ice (0° C.) to terminate the reaction, and the fluorescence (a1) was determined ten minutes later (excitation at 370 nm and emission at 440 nm). Concurrently, an experiment wherein, in the above system, the prolyl endopeptidase solution was substituted for a 25 mM sodium phosphate buffer (pH 6.8, containing 1 mM dithiothreitol and 0.5 mM EDTA) and an experiment wherein the solution of the compound of the present invention was substituted for a 0.1M potassium-sodium phosphate buffer (pH 7.0) were conducted. Each fluorescence (a2 and a3) was determined [See Tanpakushitsu Kakusan Koso, 29, 127 (1984)]. The prolyl endopeptidase inhibition was calculated by the following formula, and IC50, a concentration necessary for 50% inhibition, was estimated by using a semilogarithmic graph paper. [formula]

[4] = biological target: T3, cathepsin B (Bos taurus, UniProt P07688); assay: Cathepsin B-inhibitory activity; details: concentration 0.1 μM; bovine spleen, pH 6.0
T3 construct: purchased Sigma; host or cells: bovine spleen
Description: as §1, §2, §3
Determination of cathepsin B-inhibitory activity
In completely the same manner as above, respective fluorescence (f1, f2 and f3) was determined using a 100 mM sodium phosphate buffer (pH 6.0; containing 1.33 mM EDTA Na2) as a buffer for determination, a 0.02 μM solution of cathepsin B (derived from bovine spleen, Sigma) in the same buffer as an enzyme solution and a 200 μM solution of 7-(N-benzyloxy-carbonyl-phenylaranyl-arginyl)-4-methylcouma-rinamide (Peptid Institute, Inc.) in the same buffer as a substrate solution.
as §4

[5] = biological target: T4, trypsin (Bos taurus, UniProt P00760); assay: Trypsin-inhibitory activity; details: concentration 0.1 μM; bovine pancreas, pH 8.0
T4 construct: purchased Sigma; host or cells: bovine pancreas
T4 sequence (P00760 24-246): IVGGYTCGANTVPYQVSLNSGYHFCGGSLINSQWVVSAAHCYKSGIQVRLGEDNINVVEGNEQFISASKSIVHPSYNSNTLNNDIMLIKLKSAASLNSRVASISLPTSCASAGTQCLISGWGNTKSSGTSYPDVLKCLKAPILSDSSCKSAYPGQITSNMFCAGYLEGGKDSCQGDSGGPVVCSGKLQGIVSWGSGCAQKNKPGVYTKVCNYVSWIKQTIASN
Description: as §1, §2, §3
Determination of trypsin-inhibitory activity
In the present invention, a 50 mM Tris-HCI buffer (pH 8.0) was used as a buffer for measurement.
To a mixture of the above-mentioned buffer (850 μl ), a solution of the compound of the present invention in the same buffer (50 μl ) and a 0.02 μM solution of trypsin (derived from bovine pancreas, Sigma) in the same buffer (50 μl ) was added a 200 μM solution of 7-(prolyl-phenylaranyl-arginyl)-4methylcoumarinamide (Peptide Institute, Inc.) in the same buffer (50 μl), and the mixture was incubated at 30° C. for 1 hour. The reaction mixture was immersed in ice (0° C.) to terminate the reaction, and the fluorescence (b1) was determined 1 hour later (excitation at 370 nm and emission at 440 nm). Concurrently, an experiment wherein, in the system above, the trypsin solution was substituted for a buffer and an experiment wherein the solution of the compound of the present invention was substituted for said buffer were conducted. Each fluorescence (b2 and b3) was determined.
as §4

[6] = biological target: T5, elastase (Sus scrofa, UniProt P00772); assay: Elastase-inhibitory activity; details: concentration 0.1 μM; swine pancreas, pH 8.5
T5 construct: purchased Sigma; host or cells: swine pancreas
T5 sequence (P00772 27-266): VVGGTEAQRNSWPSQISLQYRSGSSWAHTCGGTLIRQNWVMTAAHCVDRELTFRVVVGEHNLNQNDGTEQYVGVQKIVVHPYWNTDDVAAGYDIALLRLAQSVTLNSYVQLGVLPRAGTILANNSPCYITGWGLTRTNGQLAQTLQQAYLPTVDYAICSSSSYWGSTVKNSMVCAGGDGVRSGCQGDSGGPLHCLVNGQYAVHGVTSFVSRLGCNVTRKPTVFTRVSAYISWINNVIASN
Description: as §1, §2, §3
Determination of elastase-inhibitory activity
In completely the same manner as above, respective fluorescence (e1, e2 and e3) was determined using a 1 mM Tris-HCl buffer (pH 8.5) as a buffer for determination, a 0.2 μM solution of elastase (derived from swine pancreas, Sigma) in the same buffer as an enzyme solution and a 200 μM solution of 7-(N-succinyl-aranyl-prolyl-aranyl)-4-methylcoumarinamide (Peptide Institute, Inc.) in the same buffer as a substrate solution.
as §4

Work on `CC(=O)OCC(=O)[C@@H]1CCCN1C(=O)[C@@H]1CCCN1C(=O)NCc1ccccc1` [Compound 1, (S)-2-[[(S)-2-(Acetoxyacetyl)-1-pyrrolidinyl]carbonyl]-N-(phenylmethyl)-1-pyrrolidinecarboxamide] yielded an inhibition at 0.1 µM [1] of 0%, an inhibition of leucine aminopeptidase [2] of 0% and an IC50 [3] of 0.1 nM. It also gave an inhibition at 0.1 µM [3] of 100%, an inhibition at 0.1 µM [4] of 0% and an inhibition at 0.1 µM [5] of 0%. It also gave an inhibition at 0.1 µM [6] of 0%.

With `O=C(CO)[C@@H]1CCCN1C(=O)[C@@H]1CCCN1C(=O)NCc1ccccc1` [Compound 2, (S)-2-[[(S)-2-(Hydroxyacetyl)-1-pyrrolidinyl]carbonyl]-N-(phenylmethyl)-1-pyrrolidinecarboxamide] the inhibition at 0.1 µM [1] was 0%, the inhibition of leucine aminopeptidase [2] was 0% and the inhibition at 0.1 µM ([3]; concentration 0.1 μM) was 98%. The inhibition at 0.1 µM [4] was 0%, the inhibition at 0.1 µM [5] was 0% and the inhibition at 0.1 µM [6] was 0%.

`O=C(OCC(=O)[C@@H]1CCCN1C(=O)[C@@H]1CCCN1C(=O)NCc1ccccc1)c1ccccc1` [Compound 3] gave an inhibition at 0.1 µM [1] of 0%, an inhibition of leucine aminopeptidase [2] of 0% and an IC50 [3] of 0.1 nM. It also gave an inhibition at 0.1 µM [3] of 98%, an inhibition at 0.1 µM [4] of 0% and an inhibition at 0.1 µM [5] of 0%. The inhibition at 0.1 µM [6] was 0%.

Compound `CC(C)(C)C(=O)OCC(=O)[C@@H]1CCCN1C(=O)[C@@H]1CCCN1C(=O)NCc1ccccc1` [Compound 4, (S)-N-(Phenylmethyl)-2-[[(S)-2-(pivaloyloxyacetyl)-1-pyrrolidinyl]carbonyl]-1-pyrrolidinecarboxamide] has an inhibition at 0.1 µM [1] of 0%, an inhibition of leucine aminopeptidase [2] of 0% and an IC50 [3] of 1 nM. The inhibition at 0.1 µM [3] was 97%, the inhibition at 0.1 µM [4] was 0% and the inhibition at 0.1 µM [5] was 0%. The inhibition at 0.1 µM [6] was 0%.

Compound `O=C(CO)[C@@H]1CCCN1C(=O)[C@@H]1CCCN1C(=O)NCCc1ccccc1` [Compound 5, (S)-2-[[(S)-2-(Hydroxyacetyl)-1-pyrrolidinyl]carbonyl]-N-(2-phenylethyl)-1-pyrrolidinecarboxamide] has an inhibition at 0.1 µM [1] of 0%, an inhibition of leucine aminopeptidase [2] of 0% and an IC50 [3] of 0.3 nM. It also gave an inhibition at 0.1 µM [3] of 100%, an inhibition at 0.1 µM [4] of 0% and an inhibition at 0.1 µM [5] of 0%. The inhibition at 0.1 µM [6] was 0%.

For `COc1ccc(CNC(=O)N2CCC[C@H]2C(=O)N2CCC[C@H]2C(=O)CO)cc1` [Compound 6, (S)-2-[[(S)-2-(Hydroxyacetyl)-1-pyrrolidinyl]carbonyl]-N-[(4methoxyphenyl)methyl]-1-pyrrolidinecarboxamide], the inhibition at 0.1 µM [1] was 0%, the inhibition of leucine aminopeptidase [2] was 0% and the IC50 [3] was 0.7 nM. It also gave an inhibition at 0.1 µM [3] of 100%, an inhibition at 0.1 µM [4] of 0% and an inhibition at 0.1 µM [5] of 0%. It also gave an inhibition at 0.1 µM [6] of 0%.

For `COc1ccc(OCC(=O)N2CCC[C@H]2C(=O)N2CCC[C@H]2C(=O)CO)cc1` [Compound 9, (S)-2-[[(S)-2-(Hydroxyacetyl)-1-pyrrolidinyl]carbonyl]-1-[(4methoxyphenyl)oxyacetyl]pyrrolidine], the IC50 [3] was 2 nM.

Work on `COc1ccc(OCC(=O)N2CCC[C@H]2C(=O)N2CCC[C@H]2C(=O)COC(=O)C(C)(C)C)cc1` [Compound 10, (S)-1-[(4-Methoxyphenyl)oxyacetyl]-2-[[(S)-2-(pivaloyloxyacetyl)1-pyrrolidinyl]carbonyl]pyrrolidine] yielded an IC50 [3] of 10 nM.

`CCCCCCCC(=O)N1CCC[C@H]1C(=O)N1CCC[C@H]1C(=O)CO` [Compound 11, (S)-2-[[(S)-2-(Hydroxyacetyl)-1-pyrrolidinyl]carbonyl]-1-octanoylpyrrolidine] was tested, and the IC50 [3] was 0.4 nM.

`CCCCCCCC(=O)N1CCC[C@H]1C(=O)N1CCC[C@H]1C(=O)COC(C)=O` [Compound 12, (S)-2-[[(S)-2-(Acetoxyacetyl)-1-pyrrolidinyl]carbonyl]-1-octanoylpyrrolidine] was tested, and the IC50 [3] was 2 nM.

Compound `CCCCCCCC(=O)N1CCC[C@H]1C(=O)N1CCC[C@H]1C(=O)COC(=O)c1ccccc1` [Compound 13, (S)-2-[[(S)-2-(Benzoyloxyacetyl)-1-pyrrolidinyl]carbonyl]-1-octanoylpyrrolidine] has an IC50 [3] of 8 nM.

`O=C(CO)[C@@H]1CCCN1C(=O)[C@@H]1CSCN1C(=O)OCc1ccccc1` [Compound 14, (R)-4-[[(S)-2-(Hydroxyacetyl)-1-pyrrolidinyl]carbonyl]-3(phenylmethyloxycarbonyl)thiazolidine] was tested, and the IC50 [3] was 1 nM.

Compound `CC(=O)OCC(=O)[C@@H]1CCCN1C(=O)[C@@H]1CCCN1C(=O)NCc1ccc(Cl)cc1` [Compound 15, (S)-2-[[(S)-2-(Acetoxyacetyl)-1-pyrrolidinyl]carbonyl]-N(4-chlorophenylmethyl)-1-pyrrolidinecarboxamide] has an IC50 [3] of 2 nM.
